Source: patent publication US20060240127A1, “Use of agomelatine in obtaining medicaments intended for the treatment of bipolar disorders” (priority 2005, published 2006)

System: patients suffering from bipolar disorders of type I
Test: Clinical study of agomelatine in type I bipolar patients treated with lithium or valproate
Format: in vivo
Procedure: This study was carried out in 21 patients suffering from bipolar disorders of type I, treated for at least 6 months with lithium (n =14) or valproate (n=7). Treatment for 6 weeks with agomelatine (25 mg/day) was carried out. Of these patients, 19 continued treatment beyond the 6 weeks of acute treatment, and 11 of those continued treatment up to 1 year.

manic or hypomanic episodes observed after the 6 weeks of treatment (19 patients who continued beyond 6 weeks, 11 of them up to 1 year, level compatible with a mood stabiliser): three
SMILES: COc1ccc2cccc(CCNC(C)=O)c2c1 [agomelatine, N-[2-(7-methoxy-1-naphthyl)ethyl]acetamide]
patients in remission at the end of the one year treatment period (11 patients who continued treatment up to 1 year, agomelatine 25 mg/day with lithium or valproate): 10 out of the 11
patients responded positively to the treatment (21 type I bipolar patients on lithium or valproate, agomelatine 25 mg/day, 6 weeks treatment): 81%
patients responded positively by the end of one week of treatment (21 type I bipolar patients on lithium or valproate, agomelatine 25 mg/day, end of one week): about 50%
